# Where two headings read alike, the source gives them in different places.
# Assay: Pharmacokinetic parameters (Tmax, AUClast, Cmax) of DD217 in phase II trial patients
# Format: in vivo, human (patients undergoing knee replacement surgery)
# Conditions: human, plasma
# Source text: The design, eligibility criteria, and outcomes of the phase II clinical trial evaluating the safety and tolerability of DD217 (NCT05189002, ClinicalTrials.gov) have been described previously. Briefly, this was a multicenter, double-blind, randomized, prospective phase II study designed to determine the optimal dosing regimen and to assess the safety and efficacy of DD217 for the prevention of venous thromboembolism (VTE) in patients undergoing knee replacement surgery. Patients were randomized into one of three groups: two groups received oral DD217 at doses of 40 mg or 60 mg once daily, starting on the morning of the first postoperative day, and one group received the active comparator, dalteparin sodium. The treatment duration was 14 days.
# In total, data from 52 patients who underwent knee replacement surgery were included in the analysis. Of these, 34 patients received DD217 at daily doses of 40 mg (n = 16) or 60 mg (n = 18), and 18 patients received dalteparin sodium.
# To characterize the pharmacokinetic profile of DD217 in our study, three parameters were assessed: Cmax, Tmax, and AUClast.
smiles,measurement,setting,value
"CC(=N)N(C)c1ccc(C(=O)Nc2ccc(C)cc2C(=O)Nc2ccc(Cl)cn2)cc1.Cl [DD217, N-(5-chloropyridin-2-yl)-5-methyl-2-[4-(N-methylacetimidamido)benzamido]benzamide hydrochloride]",AUC(0-t),"im, 40 mg, CYP2C9 *1/*2, *1/*3, IM (n = 6), mean ± SD, read-out: AUClast",33.9 ± 36.2 ng·h/mL
same,Cmax,"im, 40 mg, CYP2C9 *1/*2, *1/*3, IM (n = 6), mean ± SD, read-out: Cmax",3.72 ± 5.61 ng/mL
same,Tmax,"im, 40 mg, CYP2C9 *1/*2, *1/*3, IM (n = 6), mean ± SD, read-out: Tmax",9 ± 8.17 h
same,AUC(0-t),"im, 40 mg, CYP2C19 *1/*2, IM (n = 1), read-out: AUClast",48.5 ng·h/mL
same,Cmax,"im, 40 mg, CYP2C19 *1/*2, IM (n = 1), read-out: Cmax",3.12 ng/mL
same,Tmax,"im, 40 mg, CYP2C19 *1/*2, IM (n = 1), read-out: Tmax",4 h
same,AUC(0-t),"im, 40 mg, CYP3A *1/*22, *1/*3, IM (n = 4), mean ± SD, read-out: AUClast",49 ± 48.7 ng·h/mL
same,Cmax,"im, 40 mg, CYP3A *1/*22, *1/*3, IM (n = 4), mean ± SD, read-out: Cmax",6.63 ± 8.63 ng/mL
same,Tmax,"im, 40 mg, CYP3A *1/*22, *1/*3, IM (n = 4), mean ± SD, read-out: Tmax",6.25 ± 3.5 h
same,AUC(0-t),"im, 60 mg, CYP2C9 *1/*2, *1/*3, IM (n = 5), mean ± SD, read-out: AUClast",89.8 ± 89.3 ng·h/mL
same,Cmax,"im, 60 mg, CYP2C9 *1/*2, *1/*3, IM (n = 5), mean ± SD, read-out: Cmax",9.24 ± 9.59 ng/mL
same,Tmax,"im, 60 mg, CYP2C9 *1/*2, *1/*3, IM (n = 5), mean ± SD, read-out: Tmax",3.2 ± 2.17 h
same,AUC(0-t),"im, 60 mg, CYP2C19 *1/*2, *2/*2, *2/*17, IM + PM (n = 4), mean ± SD, read-out: AUClast",32.3 ± 22.5 ng·h/mL
same,Cmax,"im, 60 mg, CYP2C19 *1/*2, *2/*2, *2/*17, IM + PM (n = 4), mean ± SD, read-out: Cmax",3.64 ± 3.51 ng/mL
same,Tmax,"im, 60 mg, CYP2C19 *1/*2, *2/*2, *2/*17, IM + PM (n = 4), mean ± SD, read-out: Tmax",9.5 ± 9.98 h
same,AUC(0-t),"im, 60 mg, CYP3A *1/*3, IM (n = 2), mean ± SD, read-out: AUClast",186 ± 211 ng·h/mL
same,Cmax,"im, 60 mg, CYP3A *1/*3, IM (n = 2), mean ± SD, read-out: Cmax",11.9 ± 12.7 ng/mL
same,Tmax,"im, 60 mg, CYP3A *1/*3, IM (n = 2), mean ± SD, read-out: Tmax",3.5 ± 3.54 h
same,AUC(0-t),"oral, 40 mg/day, ABCB1 rs1045642 T>C, C/C (n 5), read-out: AUClast (SD)",17.8 ng·h/mL
same,Cmax,"oral, 40 mg/day, ABCB1 rs1045642 T>C, C/C (n 5), read-out: Cmax (SD)",2.42 ng/mL
same,Tmax,"oral, 40 mg/day, ABCB1 rs1045642 T>C, C/C (n 5), read-out: Tmax (SD)",17.2 h
same,AUC(0-t),"oral, 40 mg/day, ABCB1 rs1045642 T>C, T/C (n 7), read-out: AUClast (SD)",63.6 ng·h/mL
same,Cmax,"oral, 40 mg/day, ABCB1 rs1045642 T>C, T/C (n 7), read-out: Cmax (SD)",8.03 ng/mL
same,Tmax,"oral, 40 mg/day, ABCB1 rs1045642 T>C, T/C (n 7), read-out: Tmax (SD)",6 h
same,AUC(0-t),"oral, 40 mg/day, ABCB1 rs1045642 T>C, T/T (n 4), read-out: AUClast (SD)",35.5 ng·h/mL
same,Cmax,"oral, 40 mg/day, ABCB1 rs1045642 T>C, T/T (n 4), read-out: Cmax (SD)",4.63 ng/mL
same,Tmax,"oral, 40 mg/day, ABCB1 rs1045642 T>C, T/T (n 4), read-out: Tmax (SD)",9.5 h
same,AUC(0-t),"oral, 40 mg/day, ABCB1 rs1128503 T>C, C/C (n 8), read-out: AUClast (SD)",34.6 ng·h/mL
same,Cmax,"oral, 40 mg/day, ABCB1 rs1128503 T>C, C/C (n 8), read-out: Cmax (SD)",4.84 ng/mL
same,Tmax,"oral, 40 mg/day, ABCB1 rs1128503 T>C, C/C (n 8), read-out: Tmax (SD)",12.9 h
same,AUC(0-t),"oral, 40 mg/day, ABCB1 rs1128503 T>C, C/T (n 6), read-out: AUClast (SD)",46.4 ng·h/mL
same,Cmax,"oral, 40 mg/day, ABCB1 rs1128503 T>C, C/T (n 6), read-out: Cmax (SD)",5.24 ng/mL
same,Tmax,"oral, 40 mg/day, ABCB1 rs1128503 T>C, C/T (n 6), read-out: Tmax (SD)",9.5 h
same,AUC(0-t),"oral, 40 mg/day, ABCB1 rs1128503 T>C, T/T (n 2), read-out: AUClast (SD)",60.9 ng·h/mL
same,Cmax,"oral, 40 mg/day, ABCB1 rs1128503 T>C, T/T (n 2), read-out: Cmax (SD)",8.35 ng/mL
same,Tmax,"oral, 40 mg/day, ABCB1 rs1128503 T>C, T/T (n 2), read-out: Tmax (SD)",3 h
same,AUC(0-t),"oral, 40 mg/day, ABCB1 rs2032582 G>T, G/G (n 8), read-out: AUClast (SD)",34.6 ng·h/mL
same,Cmax,"oral, 40 mg/day, ABCB1 rs2032582 G>T, G/G (n 8), read-out: Cmax (SD)",4.84 ng/mL
same,Tmax,"oral, 40 mg/day, ABCB1 rs2032582 G>T, G/G (n 8), read-out: Tmax (SD)",12.9 h
same,AUC(0-t),"oral, 40 mg/day, ABCB1 rs2032582 G>T, G/T (n 6), read-out: AUClast (SD)",46.4 ng·h/mL
same,Cmax,"oral, 40 mg/day, ABCB1 rs2032582 G>T, G/T (n 6), read-out: Cmax (SD)",5.24 ng/mL
same,Tmax,"oral, 40 mg/day, ABCB1 rs2032582 G>T, G/T (n 6), read-out: Tmax (SD)",9.5 h
same,AUC(0-t),"oral, 40 mg/day, ABCB1 rs2032582 G>T, T/T (n 2), read-out: AUClast (SD)",60.9 ng·h/mL
same,Cmax,"oral, 40 mg/day, ABCB1 rs2032582 G>T, T/T (n 2), read-out: Cmax (SD)",8.35 ng/mL
same,Tmax,"oral, 40 mg/day, ABCB1 rs2032582 G>T, T/T (n 2), read-out: Tmax (SD)",3 h
same,AUC(0-t),"oral, 40 mg/day, ABCB1 rs4148738 C>T, C/C (n 2), read-out: AUClast (SD)",60.9 ng·h/mL
same,Cmax,"oral, 40 mg/day, ABCB1 rs4148738 C>T, C/C (n 2), read-out: Cmax (SD)",8.35 ng/mL
same,Tmax,"oral, 40 mg/day, ABCB1 rs4148738 C>T, C/C (n 2), read-out: Tmax (SD)",3 h
same,AUC(0-t),"oral, 40 mg/day, ABCB1 rs4148738 C>T, T/C (n 6), read-out: AUClast (SD)",46.4 ng·h/mL
same,Cmax,"oral, 40 mg/day, ABCB1 rs4148738 C>T, T/C (n 6), read-out: Cmax (SD)",5.24 ng/mL
same,Tmax,"oral, 40 mg/day, ABCB1 rs4148738 C>T, T/C (n 6), read-out: Tmax (SD)",9.5 h
same,AUC(0-t),"oral, 40 mg/day, ABCB1 rs4148738 C>T, T/T (n 8), read-out: AUClast (SD)",34.6 ng·h/mL
same,Cmax,"oral, 40 mg/day, ABCB1 rs4148738 C>T, T/T (n 8), read-out: Cmax (SD)",4.84 ng/mL
same,Tmax,"oral, 40 mg/day, ABCB1 rs4148738 C>T, T/T (n 8), read-out: Tmax (SD)",12.9 h
same,AUC(0-t),"oral, 40 mg, CYP2C8 rs10509681 T/C (n 3), read-out: AUClast (SD)",46.9 ng·h/mL
same,Cmax,"oral, 40 mg, CYP2C8 rs10509681 T/C (n 3), read-out: Cmax (SD)",7.06 ng/mL
same,Tmax,"oral, 40 mg, CYP2C8 rs10509681 T/C (n 3), read-out: Tmax (h, SD)",16.7 h
same,AUC(0-t),"oral, 40 mg, CYP2C8 rs10509681 T/T (n 13), read-out: AUClast (SD)",41.2 ng·h/mL
same,Cmax,"oral, 40 mg, CYP2C8 rs10509681 T/T (n 13), read-out: Cmax (SD)",5.05 ng/mL
same,Tmax,"oral, 40 mg, CYP2C8 rs10509681 T/T (n 13), read-out: Tmax (h, SD)",8.92 h
same,AUC(0-t),"oral, 40 mg, CYP2C8 rs11572080 C/C (n 13), read-out: AUClast (SD)",41.2 ng·h/mL
same,Cmax,"oral, 40 mg, CYP2C8 rs11572080 C/C (n 13), read-out: Cmax (SD)",5.05 ng/mL
same,Tmax,"oral, 40 mg, CYP2C8 rs11572080 C/C (n 13), read-out: Tmax (h, SD)",8.92 h
same,AUC(0-t),"oral, 40 mg, CYP2C8 rs11572080 C/T (n 3), read-out: AUClast (SD)",46.9 ng·h/mL
same,Cmax,"oral, 40 mg, CYP2C8 rs11572080 C/T (n 3), read-out: Cmax (SD)",7.06 ng/mL
same,Tmax,"oral, 40 mg, CYP2C8 rs11572080 C/T (n 3), read-out: Tmax (h, SD)",16.7 h
same,AUC(0-t),"oral, 40 mg, CYP2C9 *1/*1, NM (n = 8), mean ± SD, read-out: AUClast",54.5 ± 49.4 ng·h/mL
same,Cmax,"oral, 40 mg, CYP2C9 *1/*1, NM (n = 8), mean ± SD, read-out: Cmax",7.28 ± 8.71 ng/mL
same,Tmax,"oral, 40 mg, CYP2C9 *1/*1, NM (n = 8), mean ± SD, read-out: Tmax",8 ± 7.15 h
same,AUC(0-t),"oral, 40 mg, CYP2C9 *2/*3, *3/*3, PM (n = 2), mean ± SD, read-out: AUClast",18.6 ± 22.5 ng·h/mL
same,Cmax,"oral, 40 mg, CYP2C9 *2/*3, *3/*3, PM (n = 2), mean ± SD, read-out: Cmax",3.11 ± 3.75 ng/mL
same,Tmax,"oral, 40 mg, CYP2C9 *2/*3, *3/*3, PM (n = 2), read-out: Tmax",24 h
same,AUC(0-t),"oral, 40 mg, CYP2C19 *1/*1, NM (n = 6), mean ± SD, read-out: AUClast",33.1 ± 48.1 ng·h/mL
same,Cmax,"oral, 40 mg, CYP2C19 *1/*1, NM (n = 6), mean ± SD, read-out: Cmax",5.25 ± 8.82 ng/mL
same,Tmax,"oral, 40 mg, CYP2C19 *1/*1, NM (n = 6), mean ± SD, read-out: Tmax",15.5 ± 9.95 h

# From paper PMC12655527, “An Investigational Study on the Role of ADME Agents’ Genetic Variation on DD217 Pharmacokinetics and Safety Profile” (Pharmaceuticals, 2025)
